Tests used:
[1] = test system: rats with spinal nerve ligature (Chung neuropathic pain model); assay: Chung spinal nerve ligation (L5 and L6) neuropathic pain model, thermal stimulation (Example 2); type: in vivo, rat; conditions: for Paw Withdrawal Latency (s) Lesioned Paw / Paw Withdrawal Latency (s) Non-lesioned Paw: hypersensitivity test after 8 days of twice daily administration
Text: (§1) The Chung neuropathic pain model (Kim and Chung, Pain, 50: 355-363, 1992), employs spinal nerve ligation (SNL) in a rat. Tight ligature of spinal nerves in a rat is associated with hyperalgesia, allodynia and spontaneous pain. Antihyperalgesics reduce these chronic signs of pain hypersensitivity. Thus, the Chung model permits testing of the antihyperalgesic activity of compounds in rats with neuropathic pain. The Chung model constitutes a model for peripheral neuropathic pain in humans, and was employed as follows.
(§2) Male Rj: Wistar (Han) rats, weighing 264-369 g at the beginning of the experiment, were obtained from Elevage Janvier, 53940 Le Genest-Saint-Isle, France. The rats were acclimatized to laboratory conditions for at least 5 days before the surgery phase of the experiment. The rats were housed in groups of five in macrolon cages (41×25×14 cm) on wood litter (Litalabo—SPPS, 95100 Argenteuil, France) with free access to food (code 113—SAFE, 91360 Epinay-sur-Orge, France) and water until tested. The animal houses were maintained under artificial lighting (12 hours) between 7:00 AM and 7:00 PM in a controlled ambient temperature of 21±3° C., and with relative humidity maintained at 40-70%.
(§3) Rats (264-369 g) were anesthetized with sodium pentobarbital (50 mg/kg i.p.), and an incision at the L4-S2 level was made to expose the left L5 and L6 spinal nerves. A ligature was tied tightly around each nerve. The wound was then sutured. The rats received an i.m. injection of 50,000 IU penicillin G and were allowed to recover. At least 2 weeks after the surgery, when the chronic state was fully installed, rats were submitted consecutively to tactile and thermal stimulation of both the non-lesioned and the lesioned hindpaws.
(§4) Doses of OPC-14523 were prepared in stock solutions (weight per volume, W/V), then in dilutions (volume per volume, V/V), as appropriate. The compound was dispersed in 0.5% tragacanth in distilled water. Morphine was dissolved in physiological saline as a reference standard for treatment of pain. The solutions for the test and reference substances were prepared fresh on the day of the experiment.
(§5) The vehicle, OPC-14523, and reference (morphine) compound were each administered in a volume of 5 ml/kg body weight. The doses of OPC-14523 were expressed in mg of substance per kg body weight and administered orally (p.o.). The vehicle control was also administered orally. The dose of morphine was expressed in mg of hydrochloride salt per kg body weight and administered i.p.
(§6) Each animal was tested at 30 minutes, 1 hour, 2 hours and 4 hours after the administration of a substance. Testing occurred in the morning.
(§7) To evaluate chronic drug administration and hypersensitivity induction, animals received a second substance treatment in the afternoon, after acute testing. The animals then received twice-daily substance treatment for an additional 9 days. To test for induction of hypersensitivity, the animals were tested, on the ninth day, 30 minutes before the first substance administration in the morning. The effect of chronic administration was tested on the tenth day 30 minutes, 1 hour, 2 hours and 4 hours after the administration of the substance in the morning.
An apparatus (Ugo Basile, Product reference: 7371, Comerio, Italy) consisted of six individual Plexiglas® boxes (17×11×14 cm) placed upon an elevated glass floor. A rat was placed in the box and left free to habituate for 10 minutes. Then, a mobile infrared radiant source was focused under the non-lesioned and lesioned hindpaws. The paw-withdrawal latencies were automatically recorded. Paw withdrawal interrupts the reflected radiation and switches off the counter and the light source. In order to prevent tissue damage, the test was terminated after 45 seconds if no reaction was noted.
Prior to receiving drug treatment, all animals were submitted to tactile stimulation and assigned to treatment groups, matched on the basis of their pain response. […]

[2] = test system: rats with spinal nerve ligature (Chung neuropathic pain model); assay: Chung spinal nerve ligation (L5 and L6) neuropathic pain model, tactile stimulation with electronic Von Frey probe (Example 2); type: in vivo, rat; conditions: for Force Inducing Paw Withdrawal (g) Lesioned Paw / Force Inducing Paw Withdrawal (g) Non-lesioned Paw: hypersensitivity test after 8 days of twice daily administration
Text: as §1, §2, §3, §4, §5, §6, §7
For tactile stimulation, the animal was placed under an inverted Plexiglas® box (17×11×14 cm) on a grid floor. The tip of an electronic Von Frey probe (Bioseb, Model 1610, Chaville, France) was applied with increasing pressure to the non-lesioned hindpaw or the lesioned hindpaw. The force required to induce paw withdrawal was automatically recorded. This procedure was carried out three times for each paw, and the mean force per paw was calculated to provide basic scores per animal.
Prior to receiving drug treatment, all animals were submitted to tactile stimulation and assigned to treatment groups, matched on the basis of their pain response. Each treatment group consisted of eight rats. The testing was performed blind. […]

COc1cccc2c1CCC(=O)N2CCCN1CCN(c2cccc(Cl)c2)CC1 [OPC-14523, 1-[3-[4-(3-chlorophenyl)-1-piperazinyl]propyl]-5-methoxy-3,4-dihydro-2(1H)-quinolone]
change of paw-withdrawal latency vs vehicle ([1]; acute, 10 mg/kg p.o., 30 minutes, NS): −57%
change of paw-withdrawal latency vs vehicle ([1]; acute, 10 mg/kg p.o., lesioned paw, 4 hours): +190%
change of paw-withdrawal latency vs vehicle ([1]; acute, 30 mg/kg p.o., lesioned paw, 4 hours): 259%
change of paw-withdrawal latency vs vehicle ([1]; acute, 100 mg/kg p.o., lesioned paw, 4 hours): 270%
change of paw-withdrawal latency vs vehicle ([1]; acute, 100 mg/kg p.o., non-lesioned paw, p<0.05): −27%
change of paw-withdrawal latency vs vehicle ([1]; chronic, 30 mg/kg, lesioned paw, 4 hours, p<0.05): +62%
effect on paw-withdrawal latency ([1]; chronic, non-lesioned paw): no effect
Paw Withdrawal Latency (s) Lesioned Paw ([1]; 10 mg/kg p.o.): 4.5 (p < 0.01) s
Paw Withdrawal Latency (s) Non-lesioned Paw ([1]; 10 mg/kg p.o.): 43.7 (NS) s
Paw Withdrawal Latency (s) Lesioned Paw ([1]; 30 mg/kg p.o.): 19.9 (NS) s
Paw Withdrawal Latency (s) Non-lesioned Paw ([1]; 30 mg/kg p.o.): 37 (NS) s
Paw Withdrawal Latency (s) Lesioned Paw ([1]; 100 mg/kg p.o.): 22.3 (NS) s
Paw Withdrawal Latency (s) Non-lesioned Paw ([1]; 100 mg/kg p.o.): 39.1 (NS) s
effect on paw-withdrawal latency vs vehicle control ([1]; hypersensitivity test, lesioned paw at other doses, non-lesioned paw at any dose): No effects
change of paw-withdrawal latency vs vehicle ([1]; hypersensitivity test, repeated treatment 10 mg/kg p.o., lesioned paw, p<0.01): −67%
change of force inducing paw withdrawal vs vehicle ([2]; acute, 100 mg/kg p.o., lesioned paw, 1 hour): 107%
effect on force inducing paw withdrawal ([2]; acute, 100 mg/kg p.o., lesioned paw, 2 hours): tended to increase
change of force inducing paw withdrawal vs vehicle ([2]; acute, 100 mg/kg p.o., non-lesioned paw, 4 hours, p<0.01): −27%
effect on force inducing paw withdrawal ([2]; acute, p.o., other doses or time points): no significant effects
effect on force inducing paw withdrawal ([2]; chronic, twice daily, after 10 days, p.o., lesioned or non-lesioned paw): did not have clear effects
Force Inducing Paw Withdrawal (g) Lesioned Paw ([2]; 10 mg/kg p.o.): 17.6 (NS) g
Force Inducing Paw Withdrawal (g) Non-lesioned Paw ([2]; 10 mg/kg p.o.): 72.9 (NS) g
Force Inducing Paw Withdrawal (g) Lesioned Paw ([2]; 30 mg/kg p.o.): 15.1 (NS) g
Force Inducing Paw Withdrawal (g) Non-lesioned Paw ([2]; 30 mg/kg p.o.): 83.5 (NS) g
Force Inducing Paw Withdrawal (g) Lesioned Paw ([2]; 100 mg/kg p.o.): 16.2 (NS) g
Force Inducing Paw Withdrawal (g) Non-lesioned Paw ([2]; 100 mg/kg p.o.): 78.1 (NS) g
effect on force inducing paw withdrawal vs vehicle control ([2]; hypersensitivity test, repeated treatment at three different doses, lesioned or non-lesioned paw): no significant effects
induction of hypersensitivity ([2]; repeated administration, tactile and thermal stimulation): does not induce hypersensitivity
